Data as given in patent US9422263B2, “Fluoro-substituted 3,5-dicyano-4-(1H-indazol-5-yl)-2,6-dimethyl-1,4-dihydropyridine derivatives and methods of use thereof” (BAYER PHARMA AKTIENGESELLSCHAFT, priority 2009, dated 2016).

What was measured:
[1] = Caco-2 permeability assay; format: in vitro ADME; conditions: human, apical to basolateral, 2 h at 37° C., Table 3, read-out: Caco-2 permeability PappA-B
From the text: Caco-2 Permeability Assay:
The in vitro permeation of a test compound across a Caco-2 cell monolayer is a well-established assay system to predict the permeability from the gastro-intestinal tract [cf. P. Artursson and J. Karlsson: Correlation between oral drug absorption in humans and apparent drug permeability coefficients in human intestinal epithelial (Caco-2) cells, Biochem. Biophys. 175 (3), 880-885 (1991)]. The permeability of the compounds of the present invention in such Caco-2 cells was determined as described below:
Human caco-2 cells (ACC No. 169, DSMZ, German Collection of Microorganisms and Cell Cultures, Braunschweig, Germany) are seeded on 24-well insert plates and are allowed to grow for 14-16 days. For permeability studies, the test compounds are dissolved in DMSO and diluted to the final test concentration of 2 μM with transport buffer [Hanks' Buffered Salt Solution, Gibco/Invitrogen, further supplemented with glucose (final concentration 19.9 mM) and HEPES (final concentration 9.8 mM)]. For determination of the apical to basolateral permeability (PappA-B), the test compound solution is added to the apical side of the cell monolayer and transport buffer to the basolateral side of the monolayer; for determination of the basolateral to apical permeability (PappB-A), the test compound solution is added to the basolateral side of the cell monolayer and transport buffer to the apical side of the monolayer. Samples are taken from the donor compartment at the beginning of the experiment to confirm mass balance. After an incubation of 2 h at 37° C., samples are taken from both compartments. Samples are analyzed by LC-MS/MS, and the apparent permeability coefficients are calculated. Lucifer Yellow permeability is assayed for each cell monolayer to ensure cell monolayer integrity, and the permeability of Atenolol (low permeability marker) and Sulfasalazine (marker for active excretion) is determined for each batch as quality control.

[2] = Pharmacokinetics after peroral administration of test compounds; format: in vivo, rat; conditions: for in vivo PK, rat p.o. F / in vivo PK, rat p.o. AUCnorm: male Wistar rats; for in vivo PK, rat p.o. F: bioavailability; for in vivo PK, rat p.o. AUCnorm: dose and body weight-normalized AUC; for Fraction absorbed fabs, calc: rat p.o., fabs,calc=[F/Fmax,calc]*100
Experimental: Pharmacokinetics after Peroral Administration of Test Compounds: Male Wistar rats (Harlan Laboratories) are anesthetized and a catheter is inserted into the jugular vein of the rat. The next day, a defined dose of the test compound is administered perorally. Blood samples are collected through the jugular catheter during the next 24 h (8-11 time points). Blood is centrifuged in heparin-tubes, and each plasma sample is treated with acetonitrile for protein precipitation. After centrifugation, the test compound in the supernatant is quantified using an LC-MS/MS method. The determined plasma concentrations are used for the determination of pharmacokinetic parameters, such as AUC (area under the plasma concentration vs. time curve), Cmax (highest test compound concentration observed in plasma following administration), t1/2 (half-life) and F (bioavailability). The fraction of the dose absorbed (fabs,calc) is calculated by the equation fabs,calc=[F/Fmax,calc]*100, wherein F is the determined bioavailability after peroral administration and Fmax,calc is the theoretically maximum achievable bioavailability considering the determined blood clearance and assuming that the test compound is completely absorbed.

[3] = Pharmacokinetics after intravenous administration of test compounds; format: in vivo, rat; conditions: for in vivo PK, rat i.v. CLblood: male Wistar rats, total blood clearance; for in vivo PK, rat i.v. Fmax, calc: Fmax,calc=[1−CLblood/Qh]*100, Qh 4.2 L per h per kg
Experimental: Pharmacokinetics after Intravenous Administration of Test Compounds: Male Wistar rats (Harlan Laboratories) are anesthetized and a catheter is inserted into the jugular vein of the rat. The next day, a defined dose of the test compound is administered as solution by injection into the tail vein. Blood samples are collected through the jugular catheter during the next 24 h (8-11 time points). Blood is centrifuged in heparin-tubes, and each plasma sample is treated with acetonitrile for protein precipitation. After centrifugation, the test compound in the supernatant is quantified using an LC-MS/MS method. The determined plasma concentrations are used for the calculation of pharmacokinetic parameters, such as AUC (area under the plasma concentration vs. time curve), Vss (volume of distribution under steady-state conditions), Cmax (highest test compound concentration observed in plasma following administration), t1/2 (half-life) and CL (total clearance of the test compound from the plasma). For the calculation of the blood clearance, the blood to plasma partitioning is determined by incubation of the test compound in blood of rats. After separation of the plasma by centrifugation, the concentration in the plasma is determined by an LC-MS/MS method. Under the assumption that the test compound is completely absorbed, the theoretically maximum achievable bioavailability Fmax,calc is calculated by the equation Fmax,calc=[1−CLblood/Qh]*100, wherein CLblood is the total blood clearance and Qh is the hepatic blood flow in rat of 4.2 L per h per kg.

[4] = biological target: Recombinant human c-Met protein (Homo sapiens (Human), UniProt P08581); assay: c-Met receptor tyrosine kinase activity assay (NADH read-out); format: biochemical; conditions: ATP 30 μM, c-Met 30 nM
Sequence of Recombinant human c-Met protein (P08581 25-1390): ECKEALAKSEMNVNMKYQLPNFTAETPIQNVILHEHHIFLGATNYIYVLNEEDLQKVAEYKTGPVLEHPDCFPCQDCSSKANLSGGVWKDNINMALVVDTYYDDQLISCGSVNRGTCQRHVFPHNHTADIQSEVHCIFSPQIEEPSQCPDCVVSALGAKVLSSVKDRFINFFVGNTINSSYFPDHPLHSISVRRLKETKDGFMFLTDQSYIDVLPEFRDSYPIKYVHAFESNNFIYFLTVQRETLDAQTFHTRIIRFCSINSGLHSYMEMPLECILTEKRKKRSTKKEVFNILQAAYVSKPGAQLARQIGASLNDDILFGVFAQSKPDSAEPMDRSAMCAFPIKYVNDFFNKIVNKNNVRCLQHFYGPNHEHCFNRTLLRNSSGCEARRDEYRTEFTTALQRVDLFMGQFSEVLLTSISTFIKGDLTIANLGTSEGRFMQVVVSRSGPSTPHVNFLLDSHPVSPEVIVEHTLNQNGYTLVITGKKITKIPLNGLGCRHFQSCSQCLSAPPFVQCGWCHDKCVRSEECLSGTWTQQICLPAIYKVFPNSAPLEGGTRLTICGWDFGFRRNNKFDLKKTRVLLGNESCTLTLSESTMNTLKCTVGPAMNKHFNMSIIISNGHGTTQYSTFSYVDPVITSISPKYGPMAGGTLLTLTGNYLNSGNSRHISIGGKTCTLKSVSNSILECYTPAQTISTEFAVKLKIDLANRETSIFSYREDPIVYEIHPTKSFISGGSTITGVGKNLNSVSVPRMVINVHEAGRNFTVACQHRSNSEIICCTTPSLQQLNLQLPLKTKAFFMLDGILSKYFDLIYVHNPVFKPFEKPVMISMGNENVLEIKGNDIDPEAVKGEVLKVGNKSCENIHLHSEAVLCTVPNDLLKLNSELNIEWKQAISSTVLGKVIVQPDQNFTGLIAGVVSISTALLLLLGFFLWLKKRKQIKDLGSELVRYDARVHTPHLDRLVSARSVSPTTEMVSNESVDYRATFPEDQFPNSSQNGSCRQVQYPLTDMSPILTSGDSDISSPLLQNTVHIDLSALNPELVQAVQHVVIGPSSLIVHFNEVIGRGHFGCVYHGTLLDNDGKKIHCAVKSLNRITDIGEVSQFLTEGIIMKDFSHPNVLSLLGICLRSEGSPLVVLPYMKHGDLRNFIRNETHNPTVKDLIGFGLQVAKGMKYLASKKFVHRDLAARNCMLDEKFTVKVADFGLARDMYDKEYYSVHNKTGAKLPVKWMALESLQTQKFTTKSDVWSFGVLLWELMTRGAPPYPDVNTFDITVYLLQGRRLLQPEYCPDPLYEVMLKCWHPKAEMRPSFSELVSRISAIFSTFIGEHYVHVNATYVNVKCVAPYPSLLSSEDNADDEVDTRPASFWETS
Experimental: c-Met Receptor Tyrosine Kinase Activity Assay (NADH Read-Out):
Recombinant human c-Met protein (Invitrogen, Carlsbad, Calif., USA) is used. As substrate for the kinase reaction the peptide KKKSPGEYVNIEFG (JPT, Germany) is used. For the assay, 1 μL of a 51-fold concentrated solution of the test compound in DMSO is pipetted into a white 384-well microtiter plate (Greiner Bio-One, Frickenhausen, Germany). 25 μL of a solution of c-Met (final concentration 30 nM) and pyruvate kinase/lactate dehydrogenase (Roche Diagnostics, Mannheim, Germany; final concentration 8 mg/L) in assay buffer [3-(N-morpholino)propanesulfonic acid (MOPS), 50 mM, pH 7; MgCl2, 10 mM; bovine serum albumin (BSA), 0.01%; Triton X 100, 0.01%; DTT, 2 mM] are added, and the mixture is incubated for 5 min at room temperature. Then, the kinase reaction is started by the addition of 25 μL of a solution of adenosine triphosphate (ATP, final concentration 30 μM), substrate (final concentration 100 μM), nicotinamide adenine dinucleo-tide (NADH, final concentration 50 μM) and dithiothreitol (DTT, final concentration 2 mM) in assay buffer, and the resulting mixture is incubated for a reaction time of 100 min at 32° C.
Subsequently, the amount of phosphorylated substrate is evaluated by measurement of the decrease of NADH fluorescence. Therefore, the fluorescence emissions at 465 nm after excitation at 340 nm is measured in a fluorescence reader, e.g. Tecan Ultra (Tecan, Männedorf, Switzerland). The data are normalised (enzyme reaction without inhibitor=0% inhibition; all other assay components but no enzyme=100% inhibition).

CC1=C(C#N)C(c2ccc3[nH]nc(C)c3c2)C(C#N)=C(C(F)(F)F)N1 (single isomer, unassigned) [Example 6]
Papp at 2 h, 2 μM [1]: 31.1 ×10⁻⁶ cm/s | in vivo PK, rat p.o. F [2]: 62% | in vivo PK, rat p.o. AUCnorm [2]: 0.70 kg·h/L | Fraction absorbed fabs, calc [2]: 104% | in vivo PK, rat i.v. CLblood [3]: 28 mL/min/kg | in vivo PK, rat i.v. Fmax, calc [3]: 60% | IC50 [4]: 12 nM

CC1=C(C#N)C(c2ccc3[nH]nc(C)c3c2)C(C#N)=C(C(F)F)N1 (single isomer, unassigned) [Example 3, 2-(Difluoromethyl)-6-methyl-4-(3-methyl-1H-indazol-5-yl)-1,4-dihydropyridine-3,5-dicarbonitrile]
Papp at 2 h, 2 μM [1]: 16.4 ×10⁻⁶ cm/s | in vivo PK, rat p.o. F [2]: 33% | in vivo PK, rat p.o. AUCnorm [2]: 0.16 kg·h/L | Fraction absorbed fabs, calc [2]: 131% | in vivo PK, rat i.v. CLblood [3]: 52.3 mL/min/kg | in vivo PK, rat i.v. Fmax, calc [3]: 25% | IC50 [4]: 6 nM

Cc1n[nH]c2cc(F)c(C3C(C#N)=C(C(F)F)NC(C(F)F)=C3C#N)cc12 [Example 14, 2,6-Bis(difluoromethyl)-4-(6-fluoro-3-methyl-1H-indazol-5-yl)-1,4-dihydropyridine-3,5-dicarbonitrile]
Papp at 2 h, 2 μM [1]: 27.1 ×10⁻⁶ cm/s | in vivo PK, rat p.o. F [2]: 62% | in vivo PK, rat p.o. AUCnorm [2]: 4.73 kg·h/L | Fraction absorbed fabs, calc [2]: 67% | in vivo PK, rat i.v. CLblood [3]: 4.67 mL/min/kg | in vivo PK, rat i.v. Fmax, calc [3]: 93% | IC50 [4]: 26 nM
